Source: patent US20100168055A1, “COMBINATION OF MONOSACCHARIDE WITH C-GLYCOSIDE DERIVATIVE AND USE THEREOF” (L'OREAL, priority 2008, published 2010)

What was measured:
[1] = tested on: keratinocytes (HaCat line); experiment: Keratinocyte proliferation in culture medium deficient in growth factors (Cyquant, Nile red, XTT probes); type: cell-based
Procedure: The keratinocytes (HaCat line) are cultured under two conditions: whole defined culture medium (standard condition) and culture medium deficient in growth factors. This deficient medium gives rise to a controlled delay in cell proliferation. Under these conditions, it is then possible to measure the effects of compounds capable of compensating for the deficiency in growth factors of the culture medium and thus of relaunching the cell multiplication and/or of stimulating cell metabolism.
The keratinocyte proliferation is measured by means of three markers on the same cell population: the level of DNA, which is proportional to the number of cells (Cyquant probe), the level of constituent polar lipids of cell membranes (Nile red probe) and the mitochondrial respiration, which reflects the general cell metabolism (XTT probe).

[2] = tested on: dermal fibroblasts of the reconstructed skin; experiment: Count of dermal fibroblasts in whole reconstructed skin (propidium iodide staining of frozen sections); type: cell-based, human; conditions: 5 mM; within 48 hours of treatment
Description: Rhamnose was studied on a model of whole reconstructed skin in order to measure its anti-aging efficacy on the dermal compartment.
Briefly, the model of reconstructed skin used is that described by Bell et al. (Bell E. et al., The reconstitution of living skin, J. Invest. Dermatol., 1983, July; 81): it includes a dermal equivalent on which is reconstructed a multistratified epidermis; the dermal equivalent is manufactured from acid-soluble collagen, culture medium containing serum and normal adult human fibroblasts. After 5 days of shrinkage, this equivalent is inoculated with keratinocytes and then cultured for 6 days in immersion and for 7 days in emersion in order to obtain a multistratified and differentiated epidermis having a horny layer.
The reconstructed skin is treated with 5 mM rhamnose for 2 days and 5 days in the culture medium; after the treatment, the reconstructed skins are included in Tissue Tek in order to produce frozen sections 7 μm thick with a cryostat. […] Three frozen sections are prepared at random on each reconstructed skin; on each section, two microscopic fields (25× objective lens) are analysed by fluorescence microscopy and photographed. The dermal fibroblasts are thus counted for each reconstructed skin on six images in total representing the six microscopic fields considered. […]

type I procollagen = experiment: Indirect immunofluorescence detection of type I procollagen in the dermis of reconstructed skin; type: cell-based, human
Procedure: Conventional detection via indirect immunofluorescence of type I procollagen in the dermis of the reconstructed skin was also performed on other series of frozen sections (anti-procoll 1 antibody (MAB 1912 Millipore)+FTIC-coupled conjugate (112-095-068 Jackson Immunoresearch)). In order to obtain bearings within the cutaneous architecture during the microscopic examination of the sections, the cell nuclei of the keratinocytes and fibroblasts are localized by staining them with propidium iodide, as described above. Three frozen sections are prepared at random on each reconstructed skin and on each section, and two microscopic fields (25× objective lens) are analysed by fluorescence microscopy and photographed. The levels of fluorescence proportional to the amount of type I procollagen are compared between the control skin and the skin treated with rhamnose.

[3] = 1 mM, HaCat keratinocytes in medium depleted in growth factors, vs untreated control

C[C@H](O)[C@H](O)[C@@H](O)[C@@H](O)C=O [rhamnose, L-rhamnose]
efficacy on keratinocyte proliferation ([1]; 500 μM, medium depleted in growth factors): already show efficacy | level of DNA (Cyquant) [1, 3]: significantly increased | level of polar lipids (Nile red signal) [1, 3]: significantly increased | mitochondrial respiration (XTT signal) [1, 3]: significantly increased | number of cells compared with an untreated control (keratinocyte proliferation) ([1]; keratinocytes cultured in medium depleted in growth factor): higher number of cells | growth of the dermal fibroblasts of the reconstructed skin [2]: stimulation of growth | synthesis of type I procollagen by the fibroblasts (type I procollagen; 1 mM for 120 hours, reconstructed skin): greatly stimulated | green fluorescence (proportional to amount of type I procollagen) compared with control skin (type I procollagen; 1 mM for 120 hours, reconstructed skin section): marked increase | procollagen 1 synthesis (type I procollagen; 1 mM, reconstructed skin): stimulation | procollagen 1 synthesis (type I procollagen; 5 mM, reconstructed skin): stimulation
